Test results taken from US11865359B2, “Tumor imaging with x-rays and other high energy sources using as contrast agents photon-emitting phosphors having therapeutic properties” (IMMUNOLIGHT, LLC., priority 2014, dated 2024).

Assays:
[1] = test system: B16 cancer cells; experiment: Clonogenic cell kill, visible phosphor mixtures under x-ray with and without psoralen (AMT); assay type: cell-based
Excerpt: Accordingly, combinations of more than two “visible” phosphors can be used in this invention. Discussed below are x-ray settings and mass ratios for clonogenic cell kill experiments. F1 refers to the insertion of an aluminum filter into the x-ray beam to act as a filter.
FIGS. 34A and 34B show cell kill comparisons (shown here as the number of surviving colonies) between B16 cancer cells treated with and without psoralen (i.e., AMT) with different phosphor mixtures, but otherwise being x-ray stimulated and containing the multiple phosphor combinations noted above. On these drawings, LDLE=low xRT dose, low energy; HDHE=high xRT dose, high energy.
On these drawings, LDLE=low xRT dose, low energy; HDHE=high xRT dose, high energy.

[2] = test system: tumor; experiment: Animal study, Rodent Syngeneic Model, tumor growth delay; assay type: in vivo, BALB/c female mice; settings: 50-100 uL intra-tumoral injection three times per week, 100 ug phosphor combination and 5 uM psoralen (AMT), X-Ray 75kVp, 30 mA, 3 min; repeated study same result
Method: A phosphor system containing the following phosphor combination: LaPO4:Ce^3+, Tb^3+, 3Ca3(PO4)2.Ca(Fl, Cl)2:Sb^3+, Mn^2+, ZrO6-: Pr, Si, CaSiO3:Mn, Pb was used in an animal study based on a Rodent Syngeneic Model. In this animal study, a 50-100 uL intra-tumoral injection three times per week using 100 ug phosphor and 5 uM psoralen (AMT) and exposed to X-Ray dose of 75kVp using 30 mA for a duration of 3 min. The groups of mice in this study consisted of eight BALB/c female mice.

[3] = clinical use; cited from earlier work
[4] = test system: cells; settings: cells kept in the dark compared to those exposed to light; cited from earlier work
[5] = test system: sarcoma cell line KP1619; experiment: Annexin V flow cytometry apoptosis assay, 1Gy 80kVp x-ray; settings: psoralen, phosphor and x-ray present
[6] = test system: sarcoma cell line KP1408; experiment: as above; settings: psoralen, phosphor and x-ray present

SMILES: Cc1oc2c(C)c3oc(=O)cc(C)c3cc2c1CN [AMT]
- cell kill (surviving colonies) with versus without psoralen ([1]; Red/Yellow/Green and Flamingo/Yellow/Green phosphor mixtures, x-ray stimulated, FIGS. 34A and 34B): improved cell kill
- cell kill with versus without psoralen ([1]; flamingo, yellow, green FYG phosphor combination, FIG. 36): pronounced cell kill
- tumor growth versus saline treated group [2]: tumor growth delay

SMILES: Oc1cccc(-c2c3nc(c(-c4cccc(O)c4)c4ccc([nH]4)c(-c4cccc(O)c4)c4nc(c(-c5cccc(O)c5)c5ccc2[nH]5)CC4)C=C3)c1 [Foscan, Tetra (m-hydroxyphenyl) chlorin]
- duration of skin photosensitivity [3]: approximately 2 weeks

SMILES: NCCN.[Cl][Pt]([Cl])([I])[I] [[PtCl2I2(en)]]
- cytotoxicity, dark compared to light [4]: no difference in cytotoxicity

SMILES: O=c1ccc2cc3ccoc3cc2o1 [psoralen]
- apoptosis [5]: high apoptosis
- apoptosis [6]: high apoptosis
- cell kill with versus without psoralen ([1]; higher kVp x-ray conditions, FIGS. 35A and 35B): does not show an increased kill
